Data: US20240158446A1, “CYCLIC COMPOUND HAVING SELECTIVE INHIBITORY ACTION ON KRAS OVER HRAS AND NRAS” (CHUGAI SEIYAKU KABUSHIKI KAISHA, priority 2021, published 2024)
*1 amine or outer side, *2 acyl side, *3 side chain or, on linkers, in order; H or OH if unused. Where a SMILES comes first, the peptide text is derived from it. Bridges are numbered along the chain shown (N, C = ends). [ ]: non-standard residue; d: D form. The star is where a group is joined. hPhe(3-Cl-4-CF3) = N[C@@H](CCc1ccc(C(F)(F)F)c(Cl)c1)C(=O)O; NPrPhe(4-CF3) = CCCN[C@@H](Cc1ccc(C(F)(F)F)cc1)C(=O)O; NEtAsp = CCN([C@@H](CC(=O)[*:3])C(=O)[*:2])[*:1]; X7 = CCN([C@H](C(=O)[*:2])C1CCCC1)[*:1]; NMeGly(cPent) = CN[C@H](C(=O)O)C1CCCC1; NMeD = CN[C@@H](CC(=O)O)C(=O)O; NMeL = CN[C@@H](CC(C)C)C(=O)O; Morpholide = C1CN(*)CCO1; NMeA = CN[C@@H](C)C(=O)O; Aze = O=C(O)[C@@H]1CCN1; Ac4c = NC1(C(=O)O)CCC1; Sar = CNCC(=O)O

Legend:
[1] = system: human lung cancer strain NCI-H441; assay: cells; settings: NCI-H441, 96 h, read-out: NCI-H441 IC50 (nM), NCI-H441 cell proliferation, 4 days, CellTiter-Glo;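 further: cell proliferation inhibition after four days measured by CellTiter-Glo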
[2] = target: GDP-bound HRAS wild-type protein (Homo sapiens, UniProt P01112); assay: Binding to HRAS by surface plasmon resonance (SPR), Single Cycle Kinetics; settings: ratio of KD for GDP-bound HRAS wild-type protein to KD for KRAS, SPR
[3] = target: GDP-bound NRAS wild-type protein (Homo sapiens, UniProt P01111); assay: Binding to NRAS by surface plasmon resonance (SPR), Single Cycle Kinetics; settings: ratio of KD for GDP-bound NRAS wild-type protein to KD for KRAS, SPR
[4] = target: GDP-bound KRAS wild-type protein (Homo sapiens, UniProt P01116); assay: Binding to KRAS by surface plasmon resonance (SPR), Single Cycle Kinetics; settings: SPR, Single Cycle Kinetics, GDP-bound KRAS wild-type protein; read-out: KRAS KD
Chain of GDP-bound KRAS wild-type protein (P01116 whole entry): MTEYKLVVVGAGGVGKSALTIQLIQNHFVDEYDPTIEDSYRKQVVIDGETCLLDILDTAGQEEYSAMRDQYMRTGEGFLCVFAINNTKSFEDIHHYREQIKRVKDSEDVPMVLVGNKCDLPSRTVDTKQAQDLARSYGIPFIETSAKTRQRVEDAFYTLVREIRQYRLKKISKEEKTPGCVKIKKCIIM

Chain of GDP-bound HRAS wild-type protein (P01112 whole entry): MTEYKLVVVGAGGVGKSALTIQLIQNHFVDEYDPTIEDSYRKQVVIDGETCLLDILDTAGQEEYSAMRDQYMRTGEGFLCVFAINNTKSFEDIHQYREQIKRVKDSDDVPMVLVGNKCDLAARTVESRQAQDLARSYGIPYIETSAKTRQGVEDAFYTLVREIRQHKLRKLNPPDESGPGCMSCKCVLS
Chain of GDP-bound NRAS wild-type protein (P01111 whole entry): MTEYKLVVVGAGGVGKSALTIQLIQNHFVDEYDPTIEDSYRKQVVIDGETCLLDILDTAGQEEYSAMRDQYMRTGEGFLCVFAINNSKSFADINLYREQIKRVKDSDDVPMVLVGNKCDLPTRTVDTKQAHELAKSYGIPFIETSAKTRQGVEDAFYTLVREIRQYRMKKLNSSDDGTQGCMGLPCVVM

SMILES | IC50 [1] | HRAS/KRAS (KD ratio) [2] | NRAS/KRAS (KD ratio) [3] | Kd [4]
CC[C@H](C)[C@@H]1NC(=O)[C@H](CC)N(C)C(=O)C[C@@H](C(=O)N(C)C)N(C)C(=O)[C@H](C2CCCC2)N(C)C(=O)C2(CCCC2)N(C)C(=O)[C@@H]2CCCN2C(=O)[C@H](CCc2cc(F)c(C(F)(F)F)c(F)c2)NC(=O)CN(C)C(=O)[C@H](Cc2ccc(C)cc2)N2CC/C=C\C[C@@H](C2=O)N(C)C(=O)[C@@H]2CCCN2C1=O [PP1811] | 14.3 nM | B (a compound having 3 or more and less than 10 is denoted as B) | A (a compound having 10 or more and less than 20 is denoted as A) | 0.23 nM
CCCN1C(=O)CN(C)C(=O)CN(C)C(=O)[C@H]([C@@H](C)CC)NC(=O)[C@H](CC(C)C)N(C)C(=O)C[C@@H](C(=O)N2CCOCC2)N(C)C(=O)[C@H](C2CCCC2)N(CC)C(=O)C2(CCC2)NC(=O)[C@@H]2CCCN2C(=O)[C@H](CCc2ccc(C(F)(F)F)c(Cl)c2)NC(=O)CN(C)C(=O)[C@@H]1Cc1ccc(C(F)(F)F)cc1 [PP1952] ([NMeL]I[Sar][Sar][NPrPhe(4-CF3)][Sar][hPhe(3-Cl-4-CF3)]P[Ac4c][X7][NMeD]-Morpholide; lactam N-11) | 14 nM | B (a compound having 3 or more and less than 10 is denoted as B) | B (a compound having 3 or more and less than 10 is denoted as B) | 0.13 nM
CCO[C@@H]1C[C@H]2C(=O)NC3(CC(C)(C)C3)C(=O)N(C)[C@@H](C3CCCC3)C(=O)N(C)[C@H](C(=O)N(C)C)CC(=O)N(C)[C@@H](C(C)C)C(=O)N[C@@H]([C@@H](C)CC)C(=O)N(C)CC(=O)N(C)[C@H]3C/C=C\CCN(C3=O)[C@@H](Cc3ccc(C(F)(F)F)cc3)C(=O)N(C)CC(=O)N[C@@H](CCc3ccc(C(F)(F)F)c(OC)c3)C(=O)N2C1 [PP1979] | 12.5 nM | A (a compound having 10 or more and less than 20 is denoted as A) | AA (a compound having 20 or more is denoted as AA) | 0.087 nM
C#CC[C@H]1C(=O)N[C@@H]([C@@H](C)CC)C(=O)N(C)CC(=O)N(C)[C@H]2C/C=C\CCN(C2=O)[C@@H](Cc2ccc(C(F)(F)F)cc2)C(=O)N(C)CC(=O)N[C@@H](CCc2ccc(C(F)(F)F)c(OC)c2)C(=O)N2C[C@H](OCC)C[C@H]2C(=O)NC2(CC(C)(C)C2)C(=O)N(C)[C@@H](C2CCCC2)C(=O)N(C)[C@H](C(=O)N(C)C)CC(=O)N1C [PP1677] | 3.4 nM | A (a compound having 10 or more and less than 20 is denoted as A) | A (a compound having 10 or more and less than 20 is denoted as A) | 0.042 nM
CCCN(C)C(=O)[C@@H]1CC(=O)N(C)[C@@H](CC(C)C)C(=O)N[C@@H](C2CCOCC2)C(=O)N(C)CC(=O)N(C)[C@H]2C/C=C\CCN(C2=O)[C@@H](Cc2ccc(C(F)(F)F)cc2)C(=O)N(C)CC(=O)N[C@@H](CCc2cc(F)c(C(F)(F)F)c(F)c2)C(=O)N2C[C@H](OCC)C[C@H]2C(=O)NC2(CC(C)(C)C2)C(=O)N(C)[C@@H](C2CCCC2)C(=O)N1C [PP1923] | 68 nM | A (a compound having 10 or more and less than 20 is denoted as A) | A (a compound having 10 or more and less than 20 is denoted as A) | 3.4 nM
CCC[C@H]1C(=O)N[C@@H]([C@@H](C)CC)C(=O)N(C)CC(=O)N(C)[C@H]2C/C=C\CCN(C2=O)[C@@H](Cc2ccc(C(F)(F)F)cc2)C(=O)N(C)CC(=O)N[C@@H](CCc2cc(F)c(C(F)(F)F)c(F)c2)C(=O)N2C[C@H](OCC)C[C@H]2C(=O)NC2(CC(C)(C)C2)C(=O)N(C)[C@@H]([C@@H](C)CC)C(=O)N(C)[C@H](C(=O)N(C)C)CC(=O)N1C [PP1941] | 9.2 nM | A (a compound having 10 or more and less than 20 is denoted as A) | A (a compound having 10 or more and less than 20 is denoted as A) | 0.17 nM
CCO[C@@H]1C[C@H]2C(=O)NC3(CC(F)(F)C3)C(=O)N(C)[C@@H](C3CCCC3)C(=O)N(C)[C@H](C(=O)N(C)C)CC(=O)N(C)[C@@H](CC3CCC3)C(=O)N[C@@H]([C@@H](C)CC)C(=O)N(C)CC(=O)N(C)[C@H]3C/C=C\CCN(C3=O)[C@@H](Cc3ccc(C(F)(F)F)cc3)C(=O)N(C)CC(=O)N[C@@H](CCc3cc(F)c(C(F)(F)F)c(F)c3)C(=O)N2C1 [PP1742] | 1.6 nM | A (a compound having 10 or more and less than 20 is denoted as A) | A (a compound having 10 or more and less than 20 is denoted as A) | 0.051 nM
CCCN1C(=O)[C@@H]2CCN2C(=O)[C@H](C)N(C)C(=O)[C@H]([C@@H](C)CC)NC(=O)[C@H](CC(C)C)N(C)C(=O)C[C@@H](C(=O)N(C)C)N(CC)C(=O)[C@H](C2CCCC2)N(C)C(=O)C2(CCC2)NC(=O)[C@@H]2CCCN2C(=O)[C@H](CCc2ccc(C(F)(F)F)c(Cl)c2)NC(=O)CN(C)C(=O)[C@@H]1Cc1ccc(C(F)(F)F)cc1 [PP1957] ([NMeL]I[NMeA][Aze][NPrPhe(4-CF3)][Sar][hPhe(3-Cl-4-CF3)]P[Ac4c][NMeGly(cPent)][NEtAsp]-NMe2; lactam N-11) | 8.6 nM | B (a compound having 3 or more and less than 10 is denoted as B) | C (A compound having a KD ratio of 0.1 or more and less than 3 is denoted as C) | 0.36 nM
CC[C@H](C)[C@@H]1NC(=O)[C@H](C2CC2)N(C)C(=O)C[C@@H](C(=O)N(C)CC)N(C)C(=O)[C@H](C2CCCC2)N(C)C(=O)C2(CC(C)(C)C2)NC(=O)[C@@H]2C[C@H](C)CN2C(=O)[C@H](CCc2ccc(C(F)(F)F)c(OC)c2)NC(=O)CN(C)C(=O)[C@H](Cc2ccc(C(F)(F)F)cc2)N2CC/C=C\C[C@@H](C2=O)N(C)C(=O)CN(C)C1=O [PP2007] | 14.9 nM | B (a compound having 3 or more and less than 10 is denoted as B) | AA (a compound having 20 or more is denoted as AA) | 0.14 nM
CC[C@H](C)[C@@H]1NC(=O)[C@H](CC)N(C)C(=O)C[C@@H](C(=O)N(C)C)N(C)C(=O)[C@H](C2CCCC2)N(C)C(=O)C2(CC(C)(C)C2)NC(=O)[C@@H]2C[C@H](C)CN2C(=O)[C@H](CCc2ccc(C(F)(F)F)c(OC)c2)NC(=O)CN(C)C(=O)[C@H](Cc2ccc(C)cc2)N2CC/C=C\C[C@@H](C2=O)N(C)C(=O)CN(C)C1=O [PP1836] | 10.7 nM | B (a compound having 3 or more and less than 10 is denoted as B) | A (a compound having 10 or more and less than 20 is denoted as A) | 0.1 nM
CCO[C@@H]1C[C@H]2C(=O)NC3(CC(C)(C)C3)C(=O)N(C)[C@@H](C3CCCC3)C(=O)N(C)[C@H](C(=O)N(C)C)CC(=O)N(C)[C@@H](CC3CC3)C(=O)N[C@@H]([C@@H](C)CC)C(=O)N(C)CC(=O)N(C)[C@H]3C/C=C\CCN(C3=O)[C@@H](Cc3ccc(C(F)(F)F)cc3)C(=O)N(C)CC(=O)N[C@@H](CCc3ccc(C(F)(F)F)c(Cl)c3)C(=O)N2C1 [PP1749] | 3.3 nM | A (a compound having 10 or more and less than 20 is denoted as A) | A (a compound having 10 or more and less than 20 is denoted as A) | 0.039 nM
CC[C@H](C)[C@@H]1NC(=O)[C@H](CC(C)C)N(C)C(=O)C[C@@H](C(=O)N(C)C)N(C)C(=O)[C@H](C2CCCC2)N(C)C(=O)C2(CCC2)NC(=O)[C@@H]2C[C@@H](C)CN2C(=O)[C@H](CCc2ccc(C(F)(F)F)c(OC)c2)NC(=O)CN(C)C(=O)[C@H](Cc2ccc(C)cc2)N2CC/C=C\C[C@@H](C2=O)N(C)C(=O)CN(C)C1=O [PP1867] | 47.8 nM | B (a compound having 3 or more and less than 10 is denoted as B) | A (a compound having 10 or more and less than 20 is denoted as A) | 0.17 nM
CCC[C@H]1C(=O)N[C@@H]([C@@H](C)CC)C(=O)N(C)CC(=O)N(C)[C@H]2C/C=C\CCN(C2=O)[C@@H](Cc2ccc(C)cc2)C(=O)N(C)CC(=O)N[C@@H](CCc2ccc(C(F)(F)F)c(OC)c2)C(=O)N2C[C@H](C)C[C@H]2C(=O)NC2(CC(C)(C)C2)C(=O)N(C)[C@@H](C2CCCC2)C(=O)N(C)[C@H](C(=O)N(C)CC)CC(=O)N1C [PP1891] | 2.6 nM | A (a compound having 10 or more and less than 20 is denoted as A) | A (a compound having 10 or more and less than 20 is denoted as A) | 0.29 nM
CCCN(C)C(=O)[C@@H]1CC(=O)N(C)[C@@H](C)C(=O)N[C@@H]([C@@H](C)CC)C(=O)N(C)CC(=O)N(C)[C@H]2C/C=C\CCN(C2=O)[C@@H](Cc2ccc(C(F)(F)F)cc2)C(=O)N(C)CC(=O)N[C@@H](CCc2cc(F)c(C(F)(F)F)c(F)c2)C(=O)N2C[C@H](OCC)C[C@H]2C(=O)NC2(CC(F)(F)C2)C(=O)N(C)[C@@H](C2CCCC2)C(=O)N1C [PP1731] | 7.4 nM | A (a compound having 10 or more and less than 20 is denoted as A) | A (a compound having 10 or more and less than 20 is denoted as A) | 0.07 nM
